Data from BindingDB's records for doi:10.1021/acs.jmedchem.0c00182 (Inception Therapeutics, 2020).

Test: Inhibition of eIF4A1 in human HAP1 cells assessed as reduction in cell proliferation incubated for 72 hrs by CellTiter-Glo reagent based assay

COc1cc2c(c(OC)n1)[C@]1(O)[C@H](O)[C@H](CN(C)C)[C@@H](c3ccccc3)[C@]1(c1ccc(C#N)cc1)O2 [Zotatifin]
IC50: 6.3 nM
